Laboratory results: ChEMBL document CHEMBL4732127, “The discovery of a potent and selective pyrazolo-[2,3-e]-[1,2,4]-triazine cannabinoid type 2 receptor agonist” (Eur J Med Chem, 2021)
Activity calls are given as the source filed them. The calls are words filed in the database; no cut-off is given here.

How the values were obtained:
Cannabinoid receptor 2 [1] = target: T1, Cannabinoid receptor 2 (Homo sapiens, UniProt P34972); test: Agonist activity at human CB2 expressed in mouse AtT20 cells assessed as activation of G-protein gated inwardly rectifying K+ channels measured every 2 sec for 2 mins by FLIPR membrane potential assay; type: cell-based
T1 sequence (P34972 whole entry): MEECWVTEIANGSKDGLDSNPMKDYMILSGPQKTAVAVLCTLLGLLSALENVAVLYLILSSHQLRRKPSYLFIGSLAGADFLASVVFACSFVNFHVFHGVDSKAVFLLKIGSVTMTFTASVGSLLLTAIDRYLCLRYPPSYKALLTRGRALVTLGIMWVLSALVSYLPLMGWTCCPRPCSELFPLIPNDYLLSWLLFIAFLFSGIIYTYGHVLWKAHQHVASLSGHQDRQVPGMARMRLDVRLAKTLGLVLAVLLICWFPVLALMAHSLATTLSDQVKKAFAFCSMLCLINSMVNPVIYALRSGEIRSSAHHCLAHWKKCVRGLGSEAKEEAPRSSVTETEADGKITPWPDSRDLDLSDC

Cannabinoid receptor 2 [2] = target: T1, Cannabinoid receptor 2; test: Agonist activity at human CB2 expressed in mouse AtT20 cells assessed as activation of G-protein gated inwardly rectifying K+ channels at 10 uM measured every 2 sec for 2 mins by FLIPR membrane potential assay; type: cell-based
Cannabinoid receptor 1 [3] = target: T2, Cannabinoid receptor 1 (Homo sapiens, UniProt P21554); test: Agonist activity at human CB1 expressed in mouse AtT20 cells assessed as activation of G-protein gated inwardly rectifying K+ channels at 10 uM measured every 2 sec for 2 mins by FLIPR membrane potential assay; type: cell-based; settings: att20, 2 min
T2 sequence (P21554 whole entry): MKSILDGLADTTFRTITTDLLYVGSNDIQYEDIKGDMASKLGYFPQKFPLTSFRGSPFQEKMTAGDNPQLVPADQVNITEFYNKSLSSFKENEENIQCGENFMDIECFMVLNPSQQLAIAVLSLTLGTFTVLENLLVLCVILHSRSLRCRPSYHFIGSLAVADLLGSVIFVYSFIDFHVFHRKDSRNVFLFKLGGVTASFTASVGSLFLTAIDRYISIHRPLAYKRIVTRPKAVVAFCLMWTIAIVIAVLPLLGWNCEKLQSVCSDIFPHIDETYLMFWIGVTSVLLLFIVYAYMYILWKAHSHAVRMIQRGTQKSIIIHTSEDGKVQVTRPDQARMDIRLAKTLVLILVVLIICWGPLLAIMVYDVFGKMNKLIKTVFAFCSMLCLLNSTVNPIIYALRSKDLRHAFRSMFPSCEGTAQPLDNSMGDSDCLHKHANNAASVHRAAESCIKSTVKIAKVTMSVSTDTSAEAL

Cannabinoid receptor 2 [4] = target: T1, Cannabinoid receptor 2; test: Agonist activity at human CB2 expressed in mouse AtT20 cells assessed as maximal activation of G-protein gated inwardly rectifying K+ channels measured every 2 sec for 2 mins by FLIPR membrane potential assay relative to control; type: cell-based; settings: filed as agonist
Cannabinoid receptor 1 [5] = target: T2, Cannabinoid receptor 1; test: Displacement of [3H]-CP55940 from human CB1 expressed in CHO cell membrane incubated for 3 hrs by microbeta scintillation counting method; type: cell membranes
Cannabinoid receptor 2 [6] = target: T1, Cannabinoid receptor 2; test: Displacement of [3H]-CP55940 from human CB2 expressed in CHO cell membrane incubated for 3 hrs by microbeta scintillation counting method; type: cell membranes
Cannabinoid receptor 2 [7] = target: T1, Cannabinoid receptor 2; test: Agonist activity at CB2 (unknown origin)
Cannabinoid receptor 1 [8] = target: T2, Cannabinoid receptor 1; test: Agonist activity at CB1 (unknown origin)
Cannabinoid receptor 2 [9] = target: T1, Cannabinoid receptor 2; test: Agonist activity at human CB2 expressed in mouse AtT20 cells assessed as activation of G-protein gated inwardly rectifying K+ channels at 10 uM measured every 2 sec for 2 mins by FLIPR membrane potential assay relative to control; type: cell-based; settings: filed as agonist

Row | SMILES | pEC50 (Cannabinoid receptor 2 [1]) | Activity (Cannabinoid receptor 2 [2]) | Activity (Cannabinoid receptor 1 [3]) | further results
1 | CC(C)(O)COc1ccc(C(F)(F)F)cc1S(=O)(=O)Nc1cc(C(C)(C)C)nn1C[C@H]1CCCO1 | inactive | < 50% | < 50% | –
2 | CC(C)(O)COc1ccc(C(F)(F)F)cc1CCc1cc(C(C)(C)C)nn1C[C@H]1CCCO1 | inactive | < 50% | < 50% | –
3 | CC(C)(O)COc1ccc(C(F)(F)F)cc1-c1cn(-c2cc(C(C)(C)C)nn2C[C@H]2CCCO2)nn1 | inactive | < 50% | < 50% | –
4 | CC(C)(O)COc1ccc(C(F)(F)F)cc1-c1ccc2c(C(C)(C)C)nn(C[C@H]3CCCO3)c2c1 | – | – | < 50% | EC50 (Cannabinoid receptor 2 [1]; read-out: EC50): 673 nM; Emax (Cannabinoid receptor 2 [4]): 104%
5 | CC(C)(O)COc1ccc(C(F)(F)F)cc1NC(=O)c1cc(C(C)(C)C)nn1C[C@H]1CCCO1 | – | – | < 50% | EC50 (Cannabinoid receptor 2 [1]; read-out: EC50): 6760 nM; EC50 (Cannabinoid receptor 2 [1]; read-out: pEC50 (converted)): 5250 nM; Emax (Cannabinoid receptor 2 [4]): 106%
6 | CC(C)(O)COc1ccc(C(F)(F)F)cc1-c1nnc2c(C(C)(C)C)nn(C[C@H]3CCCO3)c2n1 | – | – | < 50% | EC50 (Cannabinoid receptor 2 [1]; read-out: EC50): 19 nM; Ki (Cannabinoid receptor 1 [5]): > 10000 nM; Emax (Cannabinoid receptor 2 [4]): 115%; Ki (Cannabinoid receptor 2 [6]): 17 nM
7 | Cn1c(C(C)(C)C)c/c(=N\C(=O)c2cc(C(F)(F)F)ccc2OCC(C)(C)O)n1C[C@H]1CCCO1 | – | – | – | Ki (Cannabinoid receptor 1 [5]): > 10000 nM; EC50 (Cannabinoid receptor 2 [7]): 19 nM; Ki (Cannabinoid receptor 2 [6]): 5.9 nM; EC50 (Cannabinoid receptor 1 [8]): > 10000 nM
8 | CC(C)(O)COc1ccc(C(F)(F)F)cc1CNc1cc(C(C)(C)C)nn1C[C@H]1CCCO1 | inactive | < 50% | < 50% | –
9 | CC(C)(O)COc1ccc(C(F)(F)F)cc1-c1ccc(-c2cc(C(C)(C)C)nn2C[C@H]2CCCO2)o1 | inactive | < 50% | < 50% | –
10 | CC(C)(O)COc1ccc(C(F)(F)F)cc1C(=O)Nc1cc(C(C)(C)C)nn1C[C@H]1CCCO1 | – | – | – | Ki (Cannabinoid receptor 1 [5]): > 10000 nM; Ki (Cannabinoid receptor 2 [6]): > 10000 nM
11 | CC(C)(O)COc1ccc(C(F)(F)F)cc1-c1ncc2c(C(C)(C)C)nn(C[C@H]3CCCO3)c2n1 | – | – | < 50% | EC50 (Cannabinoid receptor 2 [1]; read-out: EC50): 41 nM; Emax (Cannabinoid receptor 2 [4]): 106%
12 | CC(C)(O)COc1ccc(C(F)(F)F)cc1C#Cc1cc(C(C)(C)C)nn1C[C@H]1CCCO1 | – | – | < 50% | Activity (Cannabinoid receptor 2 [9]): 62%
13 | CC(C)(O)COc1ccc(C(F)(F)F)cc1C(=O)Oc1cc(C(C)(C)C)nn1C[C@H]1CCCO1 | – | – | < 50% | EC50 (Cannabinoid receptor 2 [1]; read-out: EC50): 1280 nM; Emax (Cannabinoid receptor 2 [4]): 106%
14 | CN(C(=O)c1cc(C(F)(F)F)ccc1OCC(C)(C)O)c1cc(C(C)(C)C)nn1C[C@H]1CCCO1 | inactive | < 50% | < 50% | –
15 | CC(C)(O)COc1ccc(C(F)(F)F)cc1Nc1cc(C(C)(C)C)nn1C[C@H]1CCCO1 | inactive | < 50% | < 50% | –
16 | CC(C)(O)COc1ccc(C(F)(F)F)cc1-c1cc(C(C)(C)C)nn1C[C@H]1CCCO1 | inactive | < 50% | < 50% | –
17 | CC(C)(O)COc1ccc(C(F)(F)F)cc1NC(=O)Nc1cc(C(C)(C)C)nn1C[C@H]1CCCO1 | – | – | < 50% | Activity (Cannabinoid receptor 2 [9]): 54%
18 | CC(C)(O)COc1ccc(C(F)(F)F)cc1/C=C/c1cc(C(C)(C)C)nn1C[C@H]1CCCO1 | – | – | < 50% | Activity (Cannabinoid receptor 2 [9]): 54%
19 | CC(C)(O)COc1ccc(C(F)(F)F)cc1C(=S)Nc1cc(C(C)(C)C)nn1C[C@H]1CCCO1 | – | – | < 50% | Activity (Cannabinoid receptor 2 [9]): 51%
